# Measurements published in the supplement of paper PMC10307832.
# Experiments:
# Experiment in all cases: relative viability (nuclei count vs DMSO), 5 days (fraction); higher = more cells survive
# GSK-J4 + Alpelisib = compound: CCOC(=O)CCNc1cc(N2CCc3ccccc3CC2)nc(-c2ccccn2)n1 [GSK-J4] + Cc1nc(NC(=O)N2CCC[C@H]2C(N)=O)sc1-c1ccnc(C(C)(C)C(F)(F)F)c1 [Alpelisib] (partner 2 µM)
# How it was run: (§1)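 Lung cancer cell lines were seeded in 1536-well plates and dosed by pin tool the next day, with either a single drug or a fixed anchor-drug dose combined with five library-drug doses (not always all listed) spaced in √10 steps. Five days later, one step fixed the cells and stained their nuclei (final 0.05% Triton X-100, 1% formaldehyde, 1 ug/ml Hoechst), and nuclei were counted on 4× images. Relative viability is the nuclei count in treated wells divided by the count in vehicle wells, and each value is the median of duplicate plates.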
# GSK-J4 + Olaparib = compound: CCOC(=O)CCNc1cc(N2CCc3ccccc3CC2)nc(-c2ccccn2)n1 [GSK-J4] + O=C(c1cc(Cc2n[nH]c(=O)c3ccccc23)ccc1F)N1CCN(C(=O)C2CC2)CC1 [Olaparib] (partner 8 µM)
# How it was run: as §1
# AZ3146 + Bortezomib = compound: CN1CCC(CC1)OC2=CC(=C(C=C2)NC3=NC=C4C(=N3)N(C(=O)N4C)C5CCCC5)OC [AZ3146] + CC(C)C[C@H](NC(=O)[C@H](Cc1ccccc1)NC(=O)c1cnccn1)B(O)O [Bortezomib] (partner 0.002 µM)
# How it was run: as §1
# AZ3146 + Linsitinib = compound: CN1CCC(CC1)OC2=CC(=C(C=C2)NC3=NC=C4C(=N3)N(C(=O)N4C)C5CCCC5)OC [AZ3146] + C[C@]1(O)C[C@@H](c2nc(-c3ccc4ccc(-c5ccccc5)nc4c3)c3c(N)nccn32)C1 [Linsitinib] (partner 1 µM)
# How it was run: as §1
Cell Line,relative viability (GSK-J4 + Alpelisib; first compound 0.5 µM),relative viability (GSK-J4 + Alpelisib; first compound 5 µM),relative viability (GSK-J4 + Alpelisib; first compound 15.81 µM),relative viability (GSK-J4 + Alpelisib; first compound 50 µM),relative viability (GSK-J4 + Olaparib; first compound 0.5 µM),relative viability (GSK-J4 + Olaparib; first compound 1.581 µM),relative viability (GSK-J4 + Olaparib; first compound 5 µM),relative viability (GSK-J4 + Olaparib; first compound 15.81 µM),relative viability (GSK-J4 + Olaparib; first compound 50 µM),relative viability (AZ3146 + Bortezomib; first compound 0.08 µM),relative viability (AZ3146 + Bortezomib; first compound 0.253 µM),relative viability (AZ3146 + Bortezomib; first compound 0.8 µM),relative viability (AZ3146 + Bortezomib; first compound 2.53 µM),relative viability (AZ3146 + Bortezomib; first compound 8 µM),relative viability (AZ3146 + Linsitinib; first compound 0.08 µM),relative viability (AZ3146 + Linsitinib; first compound 0.253 µM),relative viability (AZ3146 + Linsitinib; first compound 0.8 µM),relative viability (AZ3146 + Linsitinib; first compound 2.53 µM),relative viability (AZ3146 + Linsitinib; first compound 8 µM),relative viability (GSK-J4 + Alpelisib; first compound 1.581 µM)
NCI-H1666,0.881,1.08,0.985,0.508,0.684,0.676,0.786,0.746,0.699,0.838,0.791,0.948,0.809,0.743,0.738,0.862,0.906,0.829,0.858,–
SK-LU-1,0.927,0.661,0.834,0.565,0.433,0.465,0.429,0.428,0.309,–,–,1.02,1.15,1.5,1.02,1.4,1.13,1.27,0.547,0.885
NCI-H1299,1.01,0.975,1.04,1.04,0.96,0.916,0.878,0.929,0.772,0.965,0.965,1.05,1.01,1.01,0.941,0.981,0.964,0.99,1.03,0.899
HOP-62,0.956,1.12,0.912,0.859,0.394,0.333,0.426,0.491,0.28,0.401,0.967,0.694,0.851,0.44,1.05,0.978,1.06,1.06,1.05,1.01
NCI-H1651,0.888,0.957,0.93,0.892,0.178,0.158,0.184,0.182,0.18,0.827,1.02,0.995,0.921,0.969,0.886,1.07,1.04,0.989,1,0.814
HCC-366,0.391,–,0.305,0.365,0.362,0.308,–,0.37,0.285,0.983,1.05,1.08,1.06,0.735,0.674,0.598,0.593,0.637,0.855,0.25
EMC-BAC-2,0.755,0.785,0.716,0.691,0.403,0.461,0.407,0.444,0.391,1.03,1.03,1.19,1.12,1.15,0.81,0.756,0.836,0.791,0.82,0.717
NCI-H2228,0.702,0.933,0.566,0.575,0.555,0.608,0.583,0.728,0.903,0.904,1.03,1.04,1.18,0.953,1,0.867,0.657,0.628,0.774,0.653
Calu-6,0.914,0.834,1.05,0.915,0.559,0.567,0.587,0.53,0.608,0.975,1.08,0.999,0.938,0.57,0.925,0.925,0.928,0.948,0.971,0.815
ABC-1,1.2,1.04,0.971,0.735,0.981,0.929,0.605,0.651,0.488,0.28,0.398,0.247,0.239,0.356,0.83,0.71,0.861,0.855,0.977,0.898
PC-3 [JPC-3],0.984,1.06,0.997,0.848,1.06,1.06,0.996,1.07,0.801,0.806,0.84,0.83,0.959,0.859,0.972,0.96,1.01,0.996,0.932,0.961
A-427,1,1.17,1.08,0.561,0.714,0.701,–,0.66,0.295,0.995,1.06,0.94,1.07,0.875,1.08,1.07,1.04,1.19,1.12,–
NCI-H1975,0.615,–,0.678,0.837,0.729,0.715,0.579,0.795,0.849,0.36,0.425,0.383,0.384,0.256,0.988,0.986,1,0.978,0.352,0.613
LU99A,0.448,0.535,0.498,0.322,0.248,0.265,–,0.207,0.205,0.91,1.16,1.21,1.1,1.18,0.419,0.556,0.589,0.502,0.557,0.494
NCI-H1755,0.897,1.02,0.915,0.852,0.853,0.754,0.841,0.859,0.687,1.03,0.996,0.921,1.04,0.667,0.885,1.02,0.932,1.01,0.972,0.763
LOU-NH91,0.743,0.649,0.688,0.672,0.932,0.859,0.691,0.872,0.802,1.02,0.489,0.533,0.478,0.51,0.954,0.84,1.06,0.914,0.895,0.689
SW 1573,0.669,0.718,0.721,0.454,0.471,0.365,0.486,0.354,0.153,0.995,1.03,1.09,0.869,0.777,0.912,0.933,0.823,0.859,0.708,0.715
CAL-12T,1.12,1.43,1.29,1.29,0.668,0.63,0.772,0.673,0.548,1.28,–,0.897,1.08,0.644,0.867,0.756,0.824,0.885,0.932,1.11
NCI-H1734,0.679,0.568,0.671,0.591,0.652,0.549,0.551,0.582,0.333,0.98,1.03,0.895,0.992,0.834,0.787,0.871,0.965,0.877,0.934,0.597
LCLC-97TM1,–,0.271,0.24,0.164,0.272,0.373,0.364,0.293,0.196,0.53,0.792,0.569,0.973,0.172,–,–,0.221,0.164,0.173,–
BEN,1.04,–,0.974,0.948,1.18,0.99,0.776,0.954,0.779,–,0.588,0.752,0.762,0.726,–,0.919,0.703,1.01,0.843,0.882
EBC-1,0.742,0.9,0.824,0.423,0.603,0.567,0.676,0.655,0.453,0.549,0.578,0.541,0.521,0.279,0.906,0.707,0.899,0.879,0.991,0.72
COR-L23,0.677,–,0.68,0.781,0.279,0.311,–,0.306,0.293,0.912,1.17,0.991,0.984,0.886,0.771,1.04,0.852,1.1,0.884,0.709
NCI-H2009,1.1,1.08,1.1,0.966,0.603,0.638,0.556,0.593,0.449,0.824,1.08,1.05,1.04,0.636,1.09,1.22,1.22,1.27,1.16,1.16
NCI-H2023,0.604,0.75,0.582,0.583,0.453,0.413,0.472,0.379,0.348,0.938,1.05,1.03,0.997,0.268,0.743,0.694,0.612,0.677,0.546,0.471
NCI-H2405,0.814,–,0.897,0.935,0.849,0.836,–,0.815,0.777,1.02,1,0.944,0.994,1.11,0.973,–,1.04,0.937,0.747,0.619
HCC-44,0.791,0.709,0.776,0.711,0.945,0.945,0.999,1.08,0.906,0.875,0.908,0.881,0.909,0.884,0.598,0.618,0.685,0.718,0.675,0.781
EPLC-272H,0.887,0.845,0.933,0.943,0.722,0.825,0.676,0.652,0.289,0.754,0.968,0.879,0.97,1.03,0.988,1.07,1.16,1.07,1.24,–
